Reference: US20200031866A1, “PEPTIDE INHIBITORS OF SODIUM CHANNELS” (SPYRYX BIOSCIENCES, INC., priority 2016, published 2020)
Like-named read-outs stand apart in the source and are kept apart here. Square brackets hold non-standard residues; d marks the D form. Peptide text beside a SMILES is read from it.

What was measured:
βENaC-Tg mice = format: in vivo
Text: Like CF patients, βENaC-Tg mice are disease free at birth, but soon develop obstructive lung disease (Zhou, Z., et al. Am J Respir Crit Care Med 178, 1245-1256 (2008)). C57BL:FVB and C57BL:C3H mixed strains have 90% and 50% mortality, respectively, and the reproducibility of the disease on these backgrounds is sufficiently high that reliable data are produced with n of about 8-10 animals/group. Furthermore, the βENaC-Tg mouse responds to therapeutic interventions in a fashion similar to CF/COPD in humans, and the development of lung disease can be prevented following inhibition of lung disease at birth (Livraghi, A., et al. J Immunol 182, 4357-4367 (2009)). S18-derived peptides or vehicle were dosed one to three times a day by intranasal instillation (1 μl/g body weight) for 14 days in parallel cohorts of mice. Mice were weighed daily and, if a diuretic effect was found, the volume excreted was replaced by sub-cutaneous injections of sterile saline. At the end of the treatment, mice were sacrificed for phenotypic analysis.

[1] = target: T1, epithelial sodium channels (Homo sapiens, UniProt P37088+P51168+P51170); assay: Airway surface liquid hyper absorption in human bronchial epithelial cultures from CF patients; format: cell-based
T1 construct: human bronchial epithelial cultures from CF patients; endogenous in cells; host or cells: human bronchial epithelial cultures from CF patients
T1 sequence (P37088 1-669): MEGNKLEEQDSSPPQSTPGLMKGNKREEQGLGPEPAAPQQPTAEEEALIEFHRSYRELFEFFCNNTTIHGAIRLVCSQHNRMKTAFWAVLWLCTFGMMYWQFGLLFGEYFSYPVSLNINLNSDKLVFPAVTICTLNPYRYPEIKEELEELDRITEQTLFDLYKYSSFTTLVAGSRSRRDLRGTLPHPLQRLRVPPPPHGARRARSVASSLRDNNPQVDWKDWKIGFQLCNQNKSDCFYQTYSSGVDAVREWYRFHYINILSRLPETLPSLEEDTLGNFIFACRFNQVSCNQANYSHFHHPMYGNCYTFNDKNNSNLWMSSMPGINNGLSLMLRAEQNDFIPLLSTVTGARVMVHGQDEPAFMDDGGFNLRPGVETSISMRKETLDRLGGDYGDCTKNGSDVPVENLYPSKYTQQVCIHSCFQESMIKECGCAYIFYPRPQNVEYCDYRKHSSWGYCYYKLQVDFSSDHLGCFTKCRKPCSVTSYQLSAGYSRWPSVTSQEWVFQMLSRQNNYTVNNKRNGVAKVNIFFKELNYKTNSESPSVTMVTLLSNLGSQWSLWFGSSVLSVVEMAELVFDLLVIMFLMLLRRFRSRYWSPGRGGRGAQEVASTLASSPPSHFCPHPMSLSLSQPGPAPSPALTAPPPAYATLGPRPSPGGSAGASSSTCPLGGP
T1 sequence (P51168 1-640): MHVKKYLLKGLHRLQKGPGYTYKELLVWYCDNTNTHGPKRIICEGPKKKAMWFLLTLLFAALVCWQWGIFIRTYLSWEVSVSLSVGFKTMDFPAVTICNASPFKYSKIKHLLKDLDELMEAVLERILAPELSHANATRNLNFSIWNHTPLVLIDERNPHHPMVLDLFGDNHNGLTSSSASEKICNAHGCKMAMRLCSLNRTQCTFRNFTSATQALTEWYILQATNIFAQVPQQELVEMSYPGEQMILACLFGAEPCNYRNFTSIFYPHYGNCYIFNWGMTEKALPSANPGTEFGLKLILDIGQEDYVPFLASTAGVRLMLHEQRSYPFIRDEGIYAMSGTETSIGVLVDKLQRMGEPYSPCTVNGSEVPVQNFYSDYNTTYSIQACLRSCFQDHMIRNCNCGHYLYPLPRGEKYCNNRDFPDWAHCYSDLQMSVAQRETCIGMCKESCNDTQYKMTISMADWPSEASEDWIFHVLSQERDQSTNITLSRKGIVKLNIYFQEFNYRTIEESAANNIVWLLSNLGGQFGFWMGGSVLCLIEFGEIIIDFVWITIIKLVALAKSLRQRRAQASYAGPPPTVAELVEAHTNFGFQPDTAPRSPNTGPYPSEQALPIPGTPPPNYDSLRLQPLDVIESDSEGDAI
T1 sequence (P51170 1-649): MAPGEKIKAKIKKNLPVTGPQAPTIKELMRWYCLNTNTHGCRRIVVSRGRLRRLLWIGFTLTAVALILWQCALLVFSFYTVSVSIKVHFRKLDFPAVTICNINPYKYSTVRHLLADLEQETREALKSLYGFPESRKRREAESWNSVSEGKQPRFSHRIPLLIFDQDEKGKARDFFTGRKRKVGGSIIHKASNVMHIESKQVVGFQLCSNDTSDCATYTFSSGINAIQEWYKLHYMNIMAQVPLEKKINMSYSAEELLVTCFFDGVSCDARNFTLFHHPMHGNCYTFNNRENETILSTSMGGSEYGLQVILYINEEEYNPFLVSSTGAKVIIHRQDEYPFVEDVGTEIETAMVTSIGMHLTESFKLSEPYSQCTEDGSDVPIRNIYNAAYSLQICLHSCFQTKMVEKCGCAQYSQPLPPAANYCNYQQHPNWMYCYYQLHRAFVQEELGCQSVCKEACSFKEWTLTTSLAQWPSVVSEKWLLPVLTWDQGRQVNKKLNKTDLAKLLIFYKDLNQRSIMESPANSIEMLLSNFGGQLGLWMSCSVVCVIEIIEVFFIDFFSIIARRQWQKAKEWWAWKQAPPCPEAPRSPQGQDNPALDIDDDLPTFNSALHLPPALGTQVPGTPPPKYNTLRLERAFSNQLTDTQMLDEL

CC[C@H](C)[C@H](NC(=O)[C@@H]1CCCN1C(=O)[C@H](CC(C)C)NC(=O)[C@@H](C)NC(=O)[C@@H](C)N)C(=O)N1CCC[C@H]1C(=O)N[C@@H](CC(C)C)C(=O)N[C@@H](CC(=O)O)C(=O)N[C@@H](CCC(N)=O)C(=O)N[C@H](C(=O)N[C@H](C)C(=O)N[C@H](C)C(N)=O)[C@@H](C)O [SEQ ID NO:128, aaLPIPLDQTaa] (H-[dA][dA]LPIPLDQT[dA][dA]-NH2)
percent survival (βENaC-Tg mice; βENaC-Tg C57BL:C3H mice, fourteen-day treatment, FIGS. 7C, 7D, 7F): increased percent survival | percent survival (βENaC-Tg mice; βENaC-Tg C57BL:C3H mice, once daily dosing, FIG. 7E left panel): increased percent survival | percent survival (βENaC-Tg mice; βENaC-Tg C57BL:FVB mice, fourteen-day inhaled treatment, FIG. 7B): more effective than inhaled SEQ ID NO:142 at increasing percent survival | duration of prevention of airway surface liquid hyper absorption following a single dose [1]: > 8 h
